Assay results reported in patent publication US8901118B2, “Compounds and methods for kinase modulation, and indications therefor” (Plexxikon Inc., priority 2010, dated 2014).

How the values were obtained:
[1] = Relative solubility by turbidity in aqueous buffers (pH 1.5, 4.5, 6.8, 7.4); format: physicochemical; settings: for turbidity threshold (L, M, H) 1.4: pH 1.5 (SGF); for turbidity threshold (L, M, H) 4.5: pH 4.5 (SIF); for turbidity threshold (L, M, H) 6.8: pH 6.8 (SIF); for turbidity threshold (L, M, H) 7.4: pH 7.4 (HEPES)
Procedure: As an indication of relative solubility, the turbidity of compounds in aqueous solutions is assessed. To assess possible compound properties in different physiological compartments, such as stomach, intestine, and blood, a series of aqueous buffers with varying pH is used. Thus each compound is diluted into four different physiologically relevant buffers and solution turbidity is measured by spectrophotometry.
Compounds are dissolved at a concentration of 25 mM in dimethyl sulfoxide, then serially diluted 1:1 into a 96 well plate, diluting 10 times in pure dimethyl sulfoxide, with the final well of each row a dimethyl sulfoxide blank. In an assay plate, 99 μL of appropriate buffer is added to each well, and 1 μL of each sample dilution is added to the buffer, achieving a range of final total concentrations in aqueous solutions having different pH. The buffers used are Simulated Gastric Fluid (SGF-pH 1.5) 0.5M NaCl, pH 1.5; Simulated Intestinal fluid (SIF-pH 4.5 and pH 6.8) 0.05M NaH2PO4, pH 4.5 and 6.8; and Hepes Buffer (HEPES-pH 7.4) 10 mM HEPES, 150 mM NaCl, pH 7.4. Control compounds pyrene, estriol and propranolol HCl are also assessed. Plates are spun and then mixed for 1 minute, and the absorbance is read using a Tecan Safire II to read wavelengths in the visible range (490, 535, and 650 nm) at four locations per well, reflecting the degree of turbidity present. The average optical density for each wavelength in each well is graphed vs. compound concentration, and the concentration at which the curve crosses a threshold O.D. of 0.01 for each wavelength is reported as the endpoint turbidity assay result. The average of the three wavelengths is used to compare turbidity of compounds.

CYP1A2 = molecular target: T1, CYP1A2 (Homo sapiens, UniProt P05177); assay: CYP1A2 inhibition (fluorescent substrate CEC); format: in vitro ADME; settings: read-out: Cyp IC50 1A2
T1 sequence (P05177 1-516): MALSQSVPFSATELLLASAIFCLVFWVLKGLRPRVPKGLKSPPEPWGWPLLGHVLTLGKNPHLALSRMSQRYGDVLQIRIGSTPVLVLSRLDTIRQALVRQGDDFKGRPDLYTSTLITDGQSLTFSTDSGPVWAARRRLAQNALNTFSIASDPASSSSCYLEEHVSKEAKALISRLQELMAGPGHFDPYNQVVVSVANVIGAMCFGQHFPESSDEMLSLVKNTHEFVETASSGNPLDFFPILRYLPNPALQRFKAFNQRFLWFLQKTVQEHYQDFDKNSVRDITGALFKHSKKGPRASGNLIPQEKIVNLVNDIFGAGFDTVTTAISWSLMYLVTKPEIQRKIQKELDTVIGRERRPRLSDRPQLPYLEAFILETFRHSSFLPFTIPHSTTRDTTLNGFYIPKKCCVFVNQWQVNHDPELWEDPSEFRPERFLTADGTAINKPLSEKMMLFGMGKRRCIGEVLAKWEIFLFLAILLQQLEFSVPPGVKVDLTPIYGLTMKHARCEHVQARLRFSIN
Procedure: (§1) CYP (Cytochrome P450) enzymes are the major drug metabolizing enzymes present in the liver. The inhibition of CYP enzyme activity (IC50) for each of CYP1A2, CYP2C19, CYP2C9, CYP2D6, CYP3A4(BFC) and CYP3A4(BQ) is determined for compounds, where inhibition of metabolism of a known substrate leads to a decrease in the fluorescence of the metabolized product. The fluorescence of the product is monitored as a function of compound concentration. Compounds are dissolved in DMSO to a concentration of 100 mM. These are diluted 1 μL into 82 μL of acetonitrile. An 11 μL aliquot of this solution is then added to 204 μL of cofactor mix (1.3% NADPH Regeneration system Solution A, 1.04% NADPH Regeneration system Solution B from BD Biosciences, 5% acetonitrile and 0.05% DMSO). These are then serially diluted 1:1 (160 μL to 160 μL co-factor mix) for a total of 10 points. A 10 μL aliquot of this final mixture is dispensed into 384 well assay plates and incubated for 10 minutes at 37° C. […] Assay plates are incubated at 37° C. (CYP1A2-15 min; CYP2C9-45 min; CYP2C19, 2D6 and 3A4-30 min) and read in a Tecan Safire 2 plate reader (CYP1A2, 2C19 and 3A4 409 ex/460 em; CYP2C9 and 2D6 409 ex/530 em). The signal versus compound concentration is used to determine the IC50. The enzymes and substrates for this assay are obtained from BD Biosciences.

CYP3A4(BFC) = CYP3A4(BFC) (Homo sapiens, UniProt P08684); assay: CYP3A4(BFC) inhibition; format: in vitro ADME; settings: CYP3A4, substrate BFC; read-out: Cyp IC50 3A4(BFC)
Procedure: as §1

Sequence of CYP3A4(BFC) (P08684 whole entry): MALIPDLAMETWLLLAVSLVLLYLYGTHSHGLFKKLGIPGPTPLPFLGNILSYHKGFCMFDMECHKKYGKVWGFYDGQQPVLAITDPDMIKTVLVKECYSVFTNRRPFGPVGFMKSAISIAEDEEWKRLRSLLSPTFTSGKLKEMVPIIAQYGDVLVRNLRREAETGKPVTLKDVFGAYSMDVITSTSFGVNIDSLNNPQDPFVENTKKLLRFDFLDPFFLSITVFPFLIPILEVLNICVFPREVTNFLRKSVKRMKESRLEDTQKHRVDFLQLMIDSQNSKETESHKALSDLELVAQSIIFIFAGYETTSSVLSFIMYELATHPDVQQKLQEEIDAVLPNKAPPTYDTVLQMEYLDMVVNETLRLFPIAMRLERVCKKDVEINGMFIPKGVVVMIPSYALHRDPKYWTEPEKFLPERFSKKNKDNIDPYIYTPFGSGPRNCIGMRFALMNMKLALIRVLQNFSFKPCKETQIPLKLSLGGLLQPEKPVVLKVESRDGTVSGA

| SMILES | IC50 (CYP1A2) | IC50 (CYP3A4(BFC)) | turbidity threshold (L, M, H) 1.4 [1] | turbidity threshold (L, M, H) 4.5 [1] | turbidity threshold (L, M, H) 6.8 [1] | turbidity threshold (L, M, H) 7.4 [1] |
| --- | --- | --- | --- | --- | --- | --- |
| CNc1ncnc2[nH]cc(C(=O)c3ccc(NC4CCC(F)(F)CC4)nc3Cl)c12 [Compound P-4058, [2-chloro-6-[(4,4-difluorocyclohexyl)amino]-3-pyridyl]-[4-(methylamino)-7H-pyrrolo[2,3-d]pyrimidin-5-yl]methanone] | > 10 µM | > 10 µM | M (moderate solubility if the threshold concentration is 31.3 μM to 250 μM) | L (low solubility if the threshold concentration is <31.3 μM) | L (low solubility if the threshold concentration is <31.3 μM) | L (low solubility if the threshold concentration is <31.3 μM) |
| O=C(c1ccc(NC2CCC(F)(F)CC2)nc1Cl)c1c[nH]c2ncnc(NC3CC3)c12 [Compound P-4059, [2-chloro-6-[(4,4-difluorocyclohexyl)amino]-3-pyridyl]-[4-(cyclopropylamino)-7H-pyrrolo[2,3-d]pyrimidin-5-yl]methanone] | > 10 µM | > 10 µM | M (moderate solubility if the threshold concentration is 31.3 μM to 250 μM) | L (low solubility if the threshold concentration is <31.3 μM) | L (low solubility if the threshold concentration is <31.3 μM) | L (low solubility if the threshold concentration is <31.3 μM) |
| CNc1ncnc2[nH]cc(C(=O)c3ccc(NC4CCC(F)(F)CC4)nc3F)c12 [Compound P-4063, [6-[(4,4-difluorocyclohexyl)amino]-2-fluoro-3-pyridyl]-[4-(methylamino)-7H-pyrrolo[2,3-d]pyrimidin-5-yl]methanone] | > 10 µM | > 10 µM | M (moderate solubility if the threshold concentration is 31.3 μM to 250 μM) | M (moderate solubility if the threshold concentration is 31.3 μM to 250 μM) | M (moderate solubility if the threshold concentration is 31.3 μM to 250 μM) | M (moderate solubility if the threshold concentration is 31.3 μM to 250 μM) |
| COc1ccc(Nc2ccc(C(=O)c3c[nH]c4ncnc(NCC5CC5)c34)c(F)n2)cn1 [Compound P-4067, [4-(cyclopropylmethylamino)-7H-pyrrolo[2,3-d]pyrimidin-5-yl]-[2-fluoro-6-[(6-methoxy-3-pyridyl)amino]-3-pyridyl]methanone] | > 10 µM | > 10 µM | H (high solubility if the threshold concentration is >250 μm) | M (moderate solubility if the threshold concentration is 31.3 μM to 250 μM) | M (moderate solubility if the threshold concentration is 31.3 μM to 250 μM) | M (moderate solubility if the threshold concentration is 31.3 μM to 250 μM) |

Now from value to compound, other results behind:

| IC50 (CYP1A2) | IC50 (CYP3A4(BFC)) | SMILES | turbidity threshold (L, M, H) 1.4 [1] | turbidity threshold (L, M, H) 4.5 [1] | turbidity threshold (L, M, H) 6.8 [1] | turbidity threshold (L, M, H) 7.4 [1] |
| --- | --- | --- | --- | --- | --- | --- |
| > 10 µM | > 10 µM | CCNc1ncnc2[nH]cc(C(=O)c3ccc(Nc4ccc(C5CC5)nc4)nc3F)c12 [Compound P-4060, [6-[(6-cyclopropyl-3-pyridyl)amino]-2-fluoro-3-pyridyl]-[4-(ethylamino)-7H-pyrrolo[2,3-d]pyrimidin-5-yl]methanone] | H (high solubility if the threshold concentration is >250 μm) | M (moderate solubility if the threshold concentration is 31.3 μM to 250 μM) | M (moderate solubility if the threshold concentration is 31.3 μM to 250 μM) | M (moderate solubility if the threshold concentration is 31.3 μM to 250 μM) |
| > 10 µM | > 10 µM | O=C(c1ccc(NC2CCC(F)(F)CC2)nc1F)c1c[nH]c2ncnc(NCC(F)(F)F)c12 [Compound P-4061, [6-[(4,4-difluorocyclohexyl)amino]-2-fluoro-3-pyridyl]-[4-(2,2,2-trifluoroethylamino)-7H-pyrrolo[2,3-d]pyrimidin-5-yl]methanone] | M (moderate solubility if the threshold concentration is 31.3 μM to 250 μM) | L (low solubility if the threshold concentration is <31.3 μM) | M (moderate solubility if the threshold concentration is 31.3 μM to 250 μM) | M (moderate solubility if the threshold concentration is 31.3 μM to 250 μM) |
| > 10 µM | > 10 µM | O=C(c1ccc(NC2CCC(F)(F)CC2)nc1F)c1c[nH]c2ncnc(NC3CC3)c12 [Compound P-4062, [4-(cyclopropylamino)-7H-pyrrolo[2,3-d]pyrimidin-5-yl]-[6-[(4,4-difluorocyclohexyl)amino]-2-fluoro-3-pyridyl]methanone] | H (high solubility if the threshold concentration is >250 μm) | L (low solubility if the threshold concentration is <31.3 μM) | M (moderate solubility if the threshold concentration is 31.3 μM to 250 μM) | L (low solubility if the threshold concentration is <31.3 μM) |
| > 10 µM | > 10 µM | CCc1ccc(Nc2ccc(C(=O)c3c[nH]c4ncnc(N)c34)c(F)n2)cn1 [Compound P-4065, (4-amino-7H-pyrrolo[2,3-d]pyrimidin-5-yl)-[6-[(6-ethyl-3-pyridyl)amino]-2-fluoro-3-pyridyl]methanone] | H (high solubility if the threshold concentration is >250 μm) | M (moderate solubility if the threshold concentration is 31.3 μM to 250 μM) | M (moderate solubility if the threshold concentration is 31.3 μM to 250 μM) | M (moderate solubility if the threshold concentration is 31.3 μM to 250 μM) |
| > 10 µM | > 10 µM | COc1ccc(Nc2ccc(C(=O)c3c[nH]c4ncnc(NC(C)C)c34)c(F)n2)cn1 [Compound P-4066, [2-fluoro-6-[(6-methoxy-3-pyridyl)amino]-3-pyridyl]-[4-(isopropylamino)-7H-pyrrolo[2,3-d]pyrimidin-5-yl]methanone] | M (moderate solubility if the threshold concentration is 31.3 μM to 250 μM) | L (low solubility if the threshold concentration is <31.3 μM) | L (low solubility if the threshold concentration is <31.3 μM) | M (moderate solubility if the threshold concentration is 31.3 μM to 250 μM) |
